Laboratory results as given in patent publication US9561228B2 (Celgene Avilomics Research, Inc., priority 2013, dated 2017).

Legend:
MEK1 activated ERK1 = target: T1, MEK1 activated ERK1 (Homo sapiens, UniProt P27361); assay: Omnia continuous-read kinase assay for potency against MEK1 activated ERK1; format: biochemical; details: MEK1 activated ERK1, ATP at KM; read-out: ERK1 Omnia WT ATP KM IC50
T1 construct: purchased Millipore (Billerica, Mass.) 14-439-K
Procedure, shortened: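 Apparent IC50 came from initial reaction slopes (RFU vs time) plotted against log inhibitor with a variable-slope fit. Reactions were started with ERK1 (4 nM final) added to 50 μM ATP, roughly at its appKM, and 10 μM Sox-conjugated ST17 peptide in 20 mM Tris pH 7.5, 5 mM MgCl2. Fluorescence was monitored every 71 seconds.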

[1] = test system: ERK1/2 phosphorylation of p90RSK in HT29 cells; assay: pRSK MSD Assay in HT29 cells; format: cell-based; details: Homo sapiens, HT-29, read-out: ERK1/ERK2 PRSK MSD HT29 EC50
Procedure, shortened: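 Phospho-RSK level, read by electrochemiluminescence on RSK-antibody-coated MSD plates with a phospho-RSK/Sulfo-tag detection pair, reports cellular ERK1/2 activity. HT29 cells, kept overnight in 0.1% FBS medium, were exposed to compound for 120 min at 37° C before lysis.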

[2] = test system: HT-29 cells (colorectal adenocarcinoma); assay: Inhibition of cancer cell proliferation, HT-29 (CellTiterGlo, 72 hours); format: cell-based; details: Homo sapiens
Description: Measurement of Inhibition of Cancer Cell Proliferation (HT-29/Colorectal Adenocarcinoma)
The following protocol used an HT-29 cell line, which cell line is a model for colorectal adenocarcinoma. HT-29 cells were split and 3000 cells in 100 μl of growth medium were added per well of a flat-bottom 96-well plate. A two-fold test compound solution in serum-free RPM1640 was made, starting at 5,000 nM. Then, 3-fold serial dilutions were made across the plate from well 1 to well 11. Well 12, the last well in a row on the plate, was left as untreated control. 100 μl compound solutions were then transferred to the wells, so the total volume of media was 200 μl per well. Plates were returned to a 37° C. incubator, and the cells were cultured for 72 hours. To measure cell proliferation after 72 hours, media was discarded from the plates, 50 μl/well of fresh medium was added, and 50 μl CellTiterGlo solution was added (Promega Cat#G7573). The plate was covered with a dark lid and incubated for 10 min. A white sealing tape was applied to the bottom of the plate, and the plate was read in a luminescence plate reader. […] A 2-fold serial dilution was used to generate 8 cell densities from 50,000-390 cells per well in 50 μl media. 50 μl CellTiterGlo was added per well, and the plate was read in a luminescence plate reader after 10 min. The reading was plotted vs. cell number to generate a standard curve and the equation of the curve fit. The compound-treated sample luminescence readings were converted to cell numbers using the curve-fit equation. The percent of inhibition, using untreated control as 100% growth, was then calculated. GI50 was then calculated by GraphPad Prism.

T1 sequence (P27361 whole entry): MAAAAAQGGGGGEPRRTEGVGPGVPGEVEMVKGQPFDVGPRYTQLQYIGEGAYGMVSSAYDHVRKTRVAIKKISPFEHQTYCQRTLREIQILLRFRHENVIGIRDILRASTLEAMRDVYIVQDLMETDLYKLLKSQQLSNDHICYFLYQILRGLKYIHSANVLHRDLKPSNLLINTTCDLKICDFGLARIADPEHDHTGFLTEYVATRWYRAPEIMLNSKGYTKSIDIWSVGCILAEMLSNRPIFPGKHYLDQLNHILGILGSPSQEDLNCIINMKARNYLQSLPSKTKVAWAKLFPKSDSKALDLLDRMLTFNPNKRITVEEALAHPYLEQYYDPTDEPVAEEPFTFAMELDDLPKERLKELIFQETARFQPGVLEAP

Structure (SMILES) | IC50 (MEK1 activated ERK1) [nM] | EC50 [1] [nM] | GI50 [2] [nM]
C=CC(=O)Nc1cc(OC)ccc1Nc1nc(Nc2ccc(N3CCCN(C(=O)OC(C)(C)C)CC3)cc2C#N)ncc1Cl [Compound I-156, tert-butyl 4-(4-((4-((2-acrylamido-4-methoxyphenyl)amino)-5-chloropyrimidin-2-yl)amino)-3-cyanophenyl)-1,4-diazepane-1-carboxylate] | 101 to 500 | 501 to 999 | > 1000
C=CC(=O)Nc1cc(OC)ccc1Nc1nc(Nc2ccc(N(CC)C(C)=O)cc2C#N)ncc1Cl [Compound I-164, N-(2-((5-chloro-2-((2-cyano-4-(N-ethylacetamido)phenyl)amino)pyrimidin-4-yl)amino)-5-methoxyphenyl)acrylamide] | 101 to 500 | > 1000 | > 1000
C=CC(=O)Nc1cc(OC)ccc1Nc1nc(Nc2ccc3c(c2)CC(=O)N3CC)ncc1Cl [Compound I-166, N-(2-((5-chloro-2-((1-ethyl-2-oxoindolin-5-yl)amino)pyrimidin-4-yl)amino)-5-methoxyphenyl)acrylamide] | 101 to 500 | 101 to 500 | 101 to 500
C=CC(=O)Nc1ccccc1Nc1nc(Nc2ccc(N(CCCN)C(C)=O)cc2OC)ncc1Cl [Compound I-167, N-(2-((2-((4-(N-(3-aminopropyl)acetamido)-2-methoxyphenyl)amino)-5-chloropyrimidin-4-yl)amino)phenyl)acrylamide] | 101 to 500 | > 1000 | > 1000
C=CC(=O)Nc1ccccc1Nc1nc(Nc2ccc(N(CCN)C(C)=O)cc2OC)ncc1Cl [Compound I-168, N-(2-((2-((4-(N-(2-aminoethyl)acetamido)-2-methoxyphenyl)amino)-5-chloropyrimidin-4-yl)amino)phenyl)acrylamide] | 101 to 500 | > 1000 | > 1000
C=CC(=O)Nc1ccccc1Nc1nc(Nc2ccc(N3CCC[C@@H]3C(N)=O)cc2C#N)ncc1Cl [Compound I-179, (R)-1-(4-((4-((2-acrylamidophenyl)amino)-5-chloropyrimidin-2-yl)amino)-3-cyanophenyl)pyrrolidine-2-carboxamide] | 101 to 500 | 501 to 999 | > 1000
C=CC(=O)Nc1ccccc1Nc1nc(Nc2ccc(NC(=O)COC(C)=O)cc2OC)ncc1Cl [Compound I-183, 2-((4-((4-((2-acrylamidophenyl)amino)-5-chloropyrimidin-2-yl)amino)-3-methoxyphenyl)amino)-2-oxoethyl acetate] | 101 to 500 | 501 to 999 | > 1000
C=CC(=O)Nc1ccccc1Nc1nc(Nc2ccc(NS(C)(=O)=O)cc2OC)ncc1Cl [Compound I-185, N-(2-((5-chloro-2-((2-methoxy-4-(methylsulfonamido)phenyl)amino)pyrimidin-4-yl)amino)phenyl)acrylamide] | 101 to 500 | 101 to 500 | 501 to 999
C=CC(=O)Nc1ccccc1Nc1nc(Nc2ccc(NC(=O)CO)cc2OC)ncc1Cl [Compound I-186, N-(2-((5-chloro-2-((4-(2-hydroxyacetamido)-2-methoxyphenyl)amino)pyrimidin-4-yl)amino)phenyl)acrylamide] | 101 to 500 | 501 to 999 | > 1000
C=CC(=O)Nc1ccccc1Nc1nc(Nc2ccc(F)cc2C)ncc1Cl [Compound I-209, N-(2-((5-chloro-2-((4-fluoro-2-methylphenyl)amino)pyrimidin-4-yl)amino)phenyl)acrylamide] | 101 to 500 | 101 to 500 | 501 to 999
C=CC(=O)Nc1ccccc1Nc1nc(Nc2cc(C(N)=O)ccc2C)ncc1C [Compound I-224, 3-(4-(2-acrylamidophenylamino)-5-methylpyrimidin-2-ylamino)-4-methyl benzamide] | 101 to 500 | 101 to 500 | 101 to 500
C=CC(=O)Nc1ccccc1Oc1nc(Nc2ccc(N3CCC[C@@H]3CO)cc2OC)ncc1C(N)=O [Compound I-263, (R)-4-(2-acrylamidophenoxy)-2-((4-(2-(hydroxymethyl)pyrrolidin-1-yl)-2-methoxyphenyl)amino)pyrimidine-5-carboxamide] | 101 to 500 | > 1000 | > 1000
C=CC(=O)Nc1ccccc1Oc1nc(NC(C)(C)C)ncc1C(N)=O [Compound I-267, 4-(2-acrylamidophenoxy)-2-(tert-butylamino)pyrimidine-5-carboxamide] | 101 to 500 | > 1000 | > 1000
C=CC(=O)Nc1ccccc1Nc1nc(Nc2cc(C(N)=O)c(OCCCNC(=O)CCCC(=O)NCCCOCCOCCOCCCNC(=O)CCCC[C@@H]3SC[C@@H]4NC(=O)N[C@@H]43)cc2C)ncc1Cl [Compound I-299, N^1-(3-(4-((4-((2-acrylamidophenyl)amino)-5-chloropyrimidin-2-yl)amino)-2-carbamoyl-5-methylphenoxy)propyl)-N^5-(15-oxo-19-((3aS,4S,6aR)-2-oxohexahydro-1H-thieno[3,4-d]imidazol-4-yl)-4,7,10-trioxa-14-azanonadecyl)glutaramide] | 101 to 500 | > 1000 | > 1000
C=CC(=O)Nc1ccccc1Nc1nc(NC2CCN(C(=O)CCCC(=O)NCCCOCCOCCOCCCNC(=O)CCCC[C@@H]3SC[C@@H]4NC(=O)N[C@@H]43)CC2)ncc1Cl [Compound I-300, 5-(4-((4-((2-acrylamidophenyl)amino)-5-chloropyrimidin-2-yl)amino)piperidin-1-yl)-5-oxo-N-(15-oxo-19-((3aS,4S,6aR)-2-oxohexahydro-1H-thieno[3,4-d]imidazol-4-yl)-4,7,10-trioxa-14-azanonadecyl)pentanamide] | 101 to 500 | > 1000 | > 1000
C=CC(=O)Nc1ccccc1Nc1nc(Nc2ccc(NC(=O)CCCC(=O)NCCCOCCOCCOCCCNC(=O)CCCC[C@H]3SC[C@H]4NC(=O)N[C@H]43)cc2OC)ncc1Cl [Compound I-301, N^1-(4-((4-((2-acrylamidophenyl)amino)-5-chloropyrimidin-2-yl)amino)-3-methoxyphenyl)-N^5-(15-oxo-19-((3aR,4R,6aS)-2-oxohexahydro-1H-thieno[3,4-d]imidazol-4-yl)-4,7,10-trioxa-14-azanonadecyl)glutaramide] | 501 to 999 | > 1000 | > 1000
